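Assay format: 96-well plates, 48-hour exposure. GI50 is the concentration that inhibits growth by half. TGI is the concentration that stops growth completely.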
Columns and labels:
Experiment in all cases: DTP human tumour cell line panel, 48 h
HCC-2998 colon = test system: HCC-2998 colon
NCI/ADR-RES ovarian = test system: NCI/ADR-RES ovarian
RPMI-8226 leukemia = test system: RPMI-8226 leukemia
SNB-75 CNS = test system: SNB-75 CNS
SW-620 colon = test system: SW-620 colon
T-47D breast = test system: T-47D breast
UACC-62 melanoma = test system: UACC-62 melanoma
UO-31 renal = test system: UO-31 renal
HCT-15 colon = test system: HCT-15 colon

Row | Compound | GI50 (HCC-2998 colon) | TGI (HCC-2998 colon) | GI50 (NCI/ADR-RES ovarian) | TGI (NCI/ADR-RES ovarian) | GI50 (RPMI-8226 leukemia) | TGI (RPMI-8226 leukemia) | GI50 (SNB-75 CNS) | TGI (SNB-75 CNS) | GI50 (SW-620 colon) | TGI (SW-620 colon) | GI50 (T-47D breast) | TGI (T-47D breast) | GI50 (UACC-62 melanoma) | TGI (UACC-62 melanoma) | GI50 (UO-31 renal) | TGI (UO-31 renal) | GI50 (HCT-15 colon) | TGI (HCT-15 colon)
1 | CC1(C)OC2=C(CC1Br)C(=O)C(=O)c1ccccc12 (stereo unspecified) | 1.69 µM | 3.12 µM | 2.26 µM | 5.22 µM | 2.65 µM | 6.82 µM | 1.82 µM | 3.26 µM | 1.91 µM | 3.49 µM | 2.03 µM | 4.72 µM | 2.08 µM | 3.98 µM | 1.35 µM | 2.76 µM |  | 
2 | CS(=O)(=O)c1ccc(-n2nc(C(F)(F)F)cc2OC2CCCC2)cc1 | 27 µM | 73.5 µM | 25 µM | 81.8 µM | 34.8 µM | > 100 µM | > 100 µM | > 100 µM | 71.2 µM | > 100 µM | 33 µM | > 100 µM | 33.3 µM | > 100 µM | > 100 µM | > 100 µM | 30.6 µM | 80.1 µM
3 | COc1cc[nH]c1/C=C1\C(=O)Nc2ccc(F)c(C#CC3(O)CCNCC3)c21 | 0.368 µM | 0.979 µM | 2.11 µM | 8.24 µM | 0.372 µM | 1.23 µM | 0.014 µM | 0.469 µM | 0.0832 µM | 2.67 µM | 0.819 µM | 2.59 µM | 0.16 µM | 0.633 µM | 0.119 µM | 2.19 µM | 0.139 µM | 1.93 µM
4 | O=C(O)c1nn(-c2ccccc2-c2n[nH]c(=O)[nH]c2=O)c(=O)[nH]c1=O |  | > 100 µM |  | > 100 µM |  | > 100 µM |  | > 100 µM |  | > 100 µM |  | > 100 µM |  | > 100 µM |  | > 100 µM |  | > 100 µM
5 | O=C(O)CCNC1CCCCC1 | > 100 µM | > 100 µM | > 100 µM | > 100 µM | > 100 µM | > 100 µM | > 100 µM | > 100 µM | > 100 µM | > 100 µM | > 100 µM | > 100 µM | > 100 µM | > 100 µM | > 100 µM | > 100 µM | > 100 µM | > 100 µM
6 | O=S(=O)(NC1=NCCN1C(=S)SN1CCn2c1nsc2=S)c1cccc(Cl)c1 | 22.5 µM | 37.3 µM | 21.4 µM | 69.3 µM | 5.05 µM | > 100 µM | 29.2 µM | 55.6 µM | 22.9 µM | > 100 µM | 6.81 µM | 25.7 µM | 15.4 µM | 34.3 µM | 14.4 µM | 28.6 µM | 11.9 µM | 26.7 µM
7 | Cc1ccc2c(c1)Sc1c(ccc3ccccc13)N2 | 98.7 µM | > 100 µM | 41.9 µM | > 100 µM | 13.4 µM | > 100 µM | 15.5 µM | > 100 µM | > 100 µM | > 100 µM | 38.3 µM | > 100 µM | 73.8 µM | > 100 µM | 3.82 µM | > 100 µM | 1.45 µM | > 100 µM
8 | COC(=O)Nc1nc2ccc(Oc3ccc(NC(=O)Nc4cc(C(F)(F)F)ccc4F)cc3)cc2s1 | > 25 µM | > 25 µM | 14.5 µM | > 25 µM | > 25 µM | > 25 µM | 6.76 µM | > 23.8 µM | 9.85 µM | > 25 µM | > 18 µM | > 25 µM | 3.9 µM | > 25 µM | > 25 µM | > 25 µM | 24.3 µM | > 25 µM
9 | COc1ccc(-c2onc(N)c2-c2cc(OC)c3c(c2)OCO3)cc1 | 3.7 µM | > 87.7 µM | 0.947 µM | > 21.8 µM | 3.51 µM | > 86 µM | 1.75 µM | 7.32 µM | 0.598 µM | > 100 µM | 4.65 µM | > 100 µM | 1.96 µM | > 46.9 µM | 10.5 µM | > 100 µM | 0.958 µM | > 100 µM
10 | O=C1Nc2ccccc2C1(c1ccc(O)cc1)c1ccc(O)cc1 | 1.99 µM | 27 µM | 0.982 µM | > 100 µM | 25.8 µM | 70.9 µM | 12.7 µM | 38 µM | 26.2 µM | 83 µM | 0.0474 µM | 0.245 µM | 19.2 µM | 43.8 µM | 23.7 µM | > 89.1 µM | 19.2 µM | > 100 µM
11 | COc1cc2ncn(-c3cc(OCc4cccs4)c(C(N)=O)s3)c2cc1OC | 2.29 µM | > 25 µM | 2.22 µM | > 25 µM | 3.24 µM | > 25 µM | 5.72 µM | > 22.4 µM | 1.04 µM | > 20.3 µM | 6.4 µM | > 25 µM | 1.33 µM | > 16.8 µM | 2.77 µM | > 25 µM | 1.64 µM | > 25 µM
12 | O=C(O)/C=C(\c1nc2ccc([N+](=O)[O-])cc2[nH]1)c1cc(Cl)ccc1O | 4.13 µM | 29.4 µM | 2.71 µM | > 100 µM | 1.45 µM | 37.7 µM | 3.14 µM | 27.6 µM | 3.66 µM | 17.6 µM | 2.3 µM | 9.38 µM | 1.45 µM | 5.41 µM | 1.54 µM | 9.01 µM | 2.9 µM | 20.3 µM
13 | C#CCNC(=O)c1cccc2c1cc(C)n2-c1nc2c(c(NCc3ccccc3)n1)CCCC2 | 0.0164 µM | 0.0331 µM | 0.0281 µM | 0.101 µM | 0.0107 µM | 0.0537 µM | 0.0365 µM | 0.0872 µM | 0.0289 µM | 0.142 µM | 0.0283 µM | 0.117 µM | 0.0158 µM | 0.0359 µM | 0.0242 µM | 0.0678 µM | 0.0197 µM | 0.0474 µM
14 | CCCn1c(=S)sc2c1nc(C)n1c(Nc3ccccc3)nnc21 | 3.27 µM | 12.2 µM | 3.53 µM | 41.9 µM | 4.22 µM | 39.3 µM | 12.9 µM | 71 µM | 8.41 µM | 22.3 µM | 1.63 µM | 8.25 µM | 3.09 µM | 18.9 µM | 5.05 µM | > 100 µM | 5.09 µM | > 100 µM

Source: PubChem BioAssay (NCI)
